In patent publication US4758580A, “Inhibiting growth of tumors with certain substituted phenoxy dimethyl alkanoic acids, esters or salts” (Yamanouchi Pharmaceutical Co., Ltd., priority 1985, dated 1988):
Values after ≈ are worked out from the molar mass of the structure shown.

Columns and labels:
Ehrlich solid tumor = assay: Anti-tumor test against Ehrlich solid tumor; assay type: in vivo, ddY/SLC mice
Protocol: Ehrlich tumor cells, 2×10^6, on Day 7 after intraperitoneal transplantation to ddY/SLC mice were subcutaneously transplanted in the left abdomen of ddY/SLC mice (5 week age, male), 10 each grouped into one. The active component was intraperitoneally or orally administered in a definite dose 24 hours after the transplantation, according to the schedule shown in Table 1 (A), (B) or (C). An effect of inhibiting growth of tumor was compared, by measuring the long diameter and short diameter of the tumor on 14, 20 and 21 Days after the transplantation, calculating the tumor size (mm^2) and determining a tumor growth inhibition rate of the group administered with the active component to the control group according to the following equation:
Growth inhibition rate (%)=(C-T)/C×100
T: means tumor size (mm^2) in the active component-administered group
C: mean tumor size (mm^2) in the control group

MM-46 solid tumor = assay: Test against mouse mammalian MM-46 solid tumor; assay type: in vivo, C3 H/He/SLC mice; details: 1-9 Days
Protocol: (§1) MM-46 Tumor cells, 1×10^6, on Day 7 after intraperitoneal transplantation to C3 H/He/SLC mice were subcutaneously transplanted to the left abdomen of C3 H/He/SLC mice (5 week age, male) of 8 mice each being grouped in one (21 mice for the control group). The active component was orally administered in a definite dose 24 hours after the transplantation according to the schedule shown in Table 2. An effect of tumor growth inhibition was compared by measuring the long diameter and short diameter of the tumor on Days 14 and 21 after the transplantation, calculating the tumor size (mm^2) and determining a tumor growth inhibition rate of the active component-administered group to the control group.

Meth A solid tumor = assay: Anti-tumor test against methyl cholanthrene-induced Meth A solid tumor; assay type: in vivo, Balb/C/SLC mice; details: 1-8 Days
Protocol: as §1, with “Meth A tumor” for “MM-46 Tumor”, “1.5×10^6,” for “1×10^6,”, “Balb/C/SLC” for “C3 H/He/SLC”, “(16” for “(21”, “3.” for “2.”, “15” for “14”

MM 46 (mammary cancer) = assay: In vitro cytotoxicity against mouse tumor cells, MM 46; assay type: cell-based; details: 72 h, 3 days, 37° C., trypan blue
Protocol: (§2) A suspension of cells in a culture medium was transferred into wells in a microplate in an amount of 1×10^5 cells/wall. Test sample diluted with a culture medium was added to the suspension in each well, and the mixture was incubated on the medium at 37° C. for 3 days in atmosphere of air containing 5% carbon dioxide. Thereafter, the incubated cells were recovered from the microplate and the number of live cells was counted by the dye exclusion test using a 0.5% solution of trypan blue and by using a hemocytomer.

MH 134 (liver cancer) = assay: In vitro cytotoxicity against mouse tumor cells, MH 134; assay type: cell-based; details: 72 h, MH 134, 3 days, 37° C., trypan blue, read-out: IC50
Protocol: as §2

[1] = system: Meth A (methylcholanthrene-induced cancer); assay: In vitro cytotoxicity against mouse tumor cells, Meth A; assay type: cell-based; details: 72 h, Meth A, 3 days, 37° C., trypan blue, read-out: IC50
Protocol: as §2

ACHN (kidney cancer) = assay: In vitro cytotoxicity against human tumor cells, ACHN; assay type: cell-based; details: 72 h, 3 days, 37° C., crystalviolet, read-out: IC50
Protocol: A suspension of cells in a culture medium was transferred into wells in a microplate in an amount of 5×10^4 cells/well. Test sample diluted with a culture medium was added to the suspension in each well, and the mixture was incubated at 37° C. for 3 days in an atmosphere of air containing 5% carbon dioxide. After skimming, sticking cells were dyed which crystalviolet for 10 minutes. After washing with water, 1% sodium lauryl sulfate solution was added to each well, and the absrobancy (optical density) at […] was measured. "% inhibition" was calculated from the following equation. [formula]

[2] = Toxicity test (acute, oral); details: mouse, in vivo, ddY mice, male
Protocol: The active component was orally administered to ddY mice (mean body weight of 35 g, male). No example of death was noted up to the dose of 5,000 mg/kg. Accordingly, the acute toxicity of Compound B is greater than 5,000 mg/kg. (Effects)

[3] = Day 14, 60 mg/kg i.p., Days 1, 2, 3, 4, 7, 8, 10 & 13
[4] = Day 14, 100 mg/kg i.p., Days 1, 3, 7, 10, 13 & 14
[5] = Day 14, 200 mg/kg p.o., Days 1, 2, 3, 4, 7, 8, 10 & 13
[6] = Day 21, 60 mg/kg i.p., Days 1, 2, 3, 4, 7, 8, 10 & 13
[7] = Day 21, 100 mg/kg i.p., Days 1, 3, 7, 10, 13 & 14
[8] = Day 21, 200 mg/kg p.o., Days 1, 2, 3, 4, 7, 8, 10 & 13

## CCOC(=O)C(C)(C)CCCCOc1ccc(OCCCCCn2ccnc2)cc1 [Compound B]
Ehrlich solid tumor; [3]
  Growth Inhibition Rate: 25.7%
  Size of Tumor: 107.3 ± 54.6 mm^2
Ehrlich solid tumor; [4]
  Growth Inhibition Rate: 51.4%
  Size of Tumor: 70.1 ± 33.8 mm^2
Ehrlich solid tumor; [5]
  Growth Inhibition Rate: 66.3%
  Size of Tumor: 48.7 ± 44.3 mm^2
Ehrlich solid tumor; [6]
  Growth Inhibition Rate: 37.0%
  Size of Tumor: 323.3 ± 163.4 mm^2
Ehrlich solid tumor; [7]
  Growth Inhibition Rate: 38.5%
  Size of Tumor: 315.3 ± 235.3 mm^2
Ehrlich solid tumor; [8]
  Growth Inhibition Rate: 78.7%
  Size of Tumor: 109.2 ± 133.5 mm^2
MM-46 solid tumor; Day 14, 100 mg/kg p.o.
  Growth Inhibition Rate: 40.4%
  Size of Tumor: 150.1 ± 52.1 mm^2
MM-46 solid tumor; Day 14, 200 mg/kg p.o.
  Growth Inhibition Rate: 41.3%
  Size of Tumor: 147.9 ± 56.2 mm^2
MM-46 solid tumor; Day 14, 400 mg/kg p.o.
  Growth Inhibition Rate: 47.8%
  Size of Tumor: 131.5 ± 55.2 mm^2
MM-46 solid tumor; Day 21, 100 mg/kg p.o.
  Growth Inhibition Rate: 55.8%
  Size of Tumor: 149.4 ± 84.8 mm^2
MM-46 solid tumor; Day 21, 200 mg/kg p.o.
  Growth Inhibition Rate: 53.4%
  Size of Tumor: 147.5 ± 65.3 mm^2
MM-46 solid tumor; Day 21, 400 mg/kg p.o.
  Growth Inhibition Rate: 53.4%
  Size of Tumor: 157.4 ± 104.0 mm^2
Meth A solid tumor; Day 15, 100 mg/kg p.o.
  Growth Inhibition Rate: 27.5%
  Size of Tumor: 163.0 ± 41.9 mm^2
Meth A solid tumor; Day 15, 200 mg/kg p.o.
  Growth Inhibition Rate: 46.4%
  Size of Tumor: 124.5 ± 60.2 mm^2
Meth A solid tumor; Day 15, 400 mg/kg p.o.
  Growth Inhibition Rate: 53.6%
  Size of Tumor: 104.4 ± 56.9 mm^2
Meth A solid tumor; Day 21, 100 mg/kg p.o.
  Growth Inhibition Rate: 18.8%
  Size of Tumor: 387.9 ± 101.8 mm^2
Meth A solid tumor; Day 21, 200 mg/kg p.o.
  Growth Inhibition Rate: 39.2%
  Size of Tumor: 290.8 ± 100.9 mm^2
Meth A solid tumor; Day 21, 400 mg/kg p.o.
  Growth Inhibition Rate: 41.6%
  Size of Tumor: 279.3 ± 152.1 mm^2
MM 46 (mammary cancer)
  IC50: 0.7 µg/mL (≈ 1.68 µM)
MH 134 (liver cancer)
  IC50: 2.2 µg/mL (≈ 5.28 µM)
[1]
  IC50: 0.8 µg/mL (≈ 1.92 µM)
ACHN (kidney cancer)
  IC50: 2.3 µg/mL (≈ 5.52 µM)
[2]
  LD50: > 5000 mg/kg
